Source: patent US20150197492A1, “NOVEL INDENO[1,2-c]QUINOLIN-11-ONE DERIVATIVES, PREPARATION METHOD AND APPLICATION THEREOF” (National Defense Medical Center, priority 2014, published 2015)

Experiments:
Format in all cases: cell-based
[1] = tested on: SW-620; assay: cells; settings: SW-620 (Colon Cancer), 10 μM, 48 hours
[2] = tested on: NCI-H460; assay: cells; settings: NCI-H460 (Non-Small Cell Lung Cancer), 10 μM, 48 hours
[3] = tested on: DU-145; assay: cells; settings: DU-145 (Prostate Cancer), 10 μM, 48 hours
[4] = tested on: ACHN; assay: cells; settings: ACHN (Renal Cancer), 10 μM, 48 hours
[5] = tested on: A549/ATCC; assay: cells; settings: A549/ATCC (Non-Small Cell Lung Cancer), 10 μM, 48 hours
[6] = tested on: human PC-3 cells; assay: Sulforhodamine B (SRB) assay, cytotoxicity against PC-3 cells; settings: SRB assay, PC-3 cells
How it was run: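 PC-3 cells in 5% FBS were fixed with 10% TCA after 24 h as T0, then treated with compound for 48 h, fixed, stained with 0.4% SRB in 1% acetic acid and solubilized in 10 mmol/L Trizma base. Absorbance was read at 515 nm. GI% = 100−[(Tx−T0)/(C−T0)]×100, and IC50 is the concentration halving total protein.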

[7] = tested on: NCI-H522; assay: cells; settings: NCI-H522 (Non-Small Cell Lung Cancer), 10 μM, 48 hours
[8] = tested on: TK-10; assay: cells; settings: TK-10 (Renal Cancer), 10 μM, 48 hours
[9] = tested on: OVCAR-4; assay: cells; settings: OVCAR-4 (Ovarian Cancer), 10 μM, 48 hours
[10] = tested on: MDA-MB-435; assay: cells; settings: MDA-MB-435 (Melanoma), 10 μM, 48 hours
[11] = tested on: HOP-62; assay: cells; settings: HOP-62 (Non-Small Cell Lung Cancer), 10 μM, 48 hours
[12] = tested on: SNB-19; assay: cells; settings: SNB-19 (CNS Cancer), 10 μM, 48 hours
[13] = tested on: SK-MEL-5; assay: cells; settings: SK-MEL-5 (Melanoma), 10 μM, 48 hours
[14] = tested on: 55 to 60 cancer cell lines; settings: 10 μM, 48 hours, all tested cell lines
[15] = tested on: NCI-H23; assay: cells; settings: NCI-H23 (Non-Small Cell Lung Cancer), 10 μM, 48 hours
[16] = tested on: CCRF-CEM; assay: cells; settings: CCRF-CEM (Leukemia), 10 μM, 48 hours
[17] = tested on: CAKI-1; assay: cells; settings: CAKI-1 (Renal Cancer), 10 μM, 48 hours
[18] = tested on: HL-60 (TB); assay: cells; settings: HL-60 (TB) (Leukemia), 10 μM, 48 hours
[19] = tested on: BT-549; assay: cells; settings: BT-549 (Breast Cancer), 10 μM, 48 hours
[20] = tested on: SK-MEL-28; assay: cells; settings: SK-MEL-28 (Melanoma), 10 μM, 48 hours
[21] = tested on: SR; assay: cells; settings: SR (Leukemia), 10 μM, 48 hours
[22] = tested on: U251; assay: cells; settings: U251 (CNS Cancer), 10 μM, 48 hours
[23] = tested on: SK-OV-3; assay: cells; settings: SK-OV-3 (Ovarian Cancer), 10 μM, 48 hours
[24] = tested on: 786-0; assay: cells; settings: 786-0 (Renal Cancer), 10 μM, 48 hours
[25] = tested on: SF-295; assay: cells; settings: SF-295 (CNS Cancer), 10 μM, 48 hours
[26] = tested on: MDA-MB-231/ATCC; assay: cells; settings: MDA-MB-231/ATCC (Breast Cancer), 10 μM, 48 hours
[27] = tested on: UACC-257; assay: cells; settings: UACC-257 (Melanoma), 10 μM, 48 hours
[28] = tested on: MCF7; assay: cells; settings: MCF7 (Breast Cancer), 10 μM, 48 hours
[29] = tested on: IGROV1; assay: cells; settings: IGROV1 (Ovarian Cancer), 10 μM, 48 hours

Row | Compound | growth percentage [1] | growth percentage [2] | growth percentage [3] | growth percentage [4] | growth percentage [5] | Toxicity (%) [6] | GI % (10 μM) [6] | growth percentage [7] | growth percentage [8] | growth percentage [9] | growth percentage [10] | growth percentage [11] | growth percentage [12] | growth percentage [13] | Mean (mean growth percentage of the tested cancer cell lines) [14] | growth percentage [15] | growth percentage [16] | growth percentage [17] | growth percentage [18] | growth percentage [19] | also measured
1 | CN1CCN(c2nc3ccccc3c3c2-c2ccc(Cl)cc2C3=O)CC1 [SJ-12, 9-Chloro-6-(4-methylpiperazin-1-yl)-11H-indeno[1,2-c]quinolin-11-one] | 92.76% | 91.83% | 102.37% | 88.10% | 96.43% | 0% | 39.4% | 96.62% | 99.56% | 94.70% | 98.43% | 61.42% | 85.41% | 97.67% | 88.15% | 86.27% | 92.44% | 83.81% | 101.15% | 82.89% | growth percentage [20]: 110.81%; growth percentage [21]: 75.13%; growth percentage [22]: 85.86%; growth percentage [23]: 87.98%; growth percentage [24]: 89.51%; growth percentage [25]: 90.01%; growth percentage [26]: 62.53%; growth percentage [27]: 95.34%; growth percentage [28]: 68.30%; growth percentage [29]: 75.03%
2 | O=C1c2cc(Cl)ccc2-c2c(N3CCN(C(=O)N4CCCCC4)CC3)nc3ccccc3c21 [SJ-23] | 92.51% | 98.85% | 114.04% | 95.59% | 99.12% | 43% | 100% | 99.28% | 131.97% | 98.31% | 102.57% | 96.39% | 108.66% | 92.50% | 100.53% | 95.41% | 109.87% | 90.50% | 109.78% | 105.34% | growth percentage [20]: 107.03%; growth percentage [21]: 105.15%; growth percentage [22]: 98.15%; growth percentage [23]: 95.59%; growth percentage [24]: 105.05%; growth percentage [25]: 97.83%; growth percentage [26]: 93.54%; growth percentage [27]: 104.23%; growth percentage [28]: 97.24%; growth percentage [29]: 81.63%
